Experimental data reported in publication PMC3652859, “Inhibitor Discovery of Full-Length New Delhi Metallo-β-Lactamase-1 (NDM-1)” (PLoS ONE, 2013).
Several values for one entry are separate records, joined by “and”; a condition that tells them apart may be missing. Equal entries are not always repeated. Where two headings read alike, the source gives them in different places.

Legend:
full-length NDM-1 [1] = molecular target: T1, full-length NDM-1 (Klebsiella pneumoniae, UniProt C7C422); assay type: biochemical, E. coli; design: The full-length NDM-1 enzyme was isolated to 95% purity as indicated by the SDS-PAGE; His6 tag (pET30a leader) (N, cleaved yes); made in house; host or cells: E. coli BL21 (DE3) carrying pET30a-NDM-1
T1 sequence (C7C422 29-270 limits assumed): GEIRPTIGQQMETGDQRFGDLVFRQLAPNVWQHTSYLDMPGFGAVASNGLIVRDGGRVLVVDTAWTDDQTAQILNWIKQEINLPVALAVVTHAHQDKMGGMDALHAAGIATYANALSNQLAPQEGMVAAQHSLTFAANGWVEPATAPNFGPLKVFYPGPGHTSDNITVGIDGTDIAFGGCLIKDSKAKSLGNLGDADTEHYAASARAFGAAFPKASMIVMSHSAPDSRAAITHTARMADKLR
Description: (§1) Benzylpenicillin (Sangon, Shanghai, China), ampicillin (Sangon, Shanghai, China), cefuroxime (Sigma, St. Louis, USA), ceftazidime (TCI, Shanghai, China), ceftizoxime (TCI, Shanghai, China), cefpiramide (Shandong Lukang, Shandong, China), imipenem (Shenzhen Haibin, Guangdong, China), meropenem (Zhejiang Hisun, Zhejiang, China) and aztreonam (Hunan Kelun, Hunan, China) were used as substrates for determining the steady-state kinetic constants.
(§2) Hydrolysis of the antibiotics by NDM-1 was followed by monitoring the variation in the absorbance of the β-lactam solution in 20 mM HEPES buffer, pH 6.8, 0.25 M NaCl, 2 mM 1,4-Dithio-DL-threitol (DTT) (Sangon, Shanghai, China), 100 µM Zn(NO3)2. All the measurements were made on a UV−1800 spectrophotometer (Mapada, Shanghai, China). The reactions were performed in a total volume of 100 µl at 30°C. BSA (20 µg/ml) was added to diluted solutions of β-lactamase in order to prevent enzyme denaturation. […] The extinction coefficients and wavelengths used in the assays were those described by Laraki et al and Thomas et al. The steady-state kinetic parameters (K m and k cat) were determined more than three times by fitting the concentration dependence of initial rate measurements to the Michaelis−Menten equation using GraphPad Prism (GraphPad Software, La Jolla, America).

[2] = Solubility behaviour in testing buffer of the IC50 assay; assay type: physicochemical; conditions: result in words
[3] = system: E. coli BL21 (DE3)/pET30a-NDM-1; test: microbe, parasite or virus in culture; assay type: cell-based; conditions: for synergistic antibacterial activity with meropenem / sensitization of the strain to clinically achievable concentrations of meropenem: result in words; for sensitization of the strain to clinically achievable concentrations of meropenem: inhibitor at the level of 100 µM
Procedure: E. coli BL21 (DE3) was used as a control in the experiment. E. coli BL21 (DE3)/pET30a-NDM-1 was grown overnight in MH broth media (Tianhe Microbial Agents, Hangzhou, China) containing kanamycin (30 µg/ml) at 37°C. Determination of antibacterial synergy was completed using a twofold serial dilution method, as recommended by CLSI guidelines. […] The 96-well microplates were incubated at 37°C with continuous shaking for 18 h and a reading at 630 nm was taken to determine minimum inhibitory concentrations (MICs), [22]. […] Each concentration reading was repeated three times. All of the above experiments were repeated at least twice.

full-length NDM-1 [4] = molecular target: T1, full-length NDM-1; test: biochemical
Procedure: The compounds to be tested were dissolved in DMSO prior to incubation with the enzyme, with the final concentration of DMSO in the assay not exceeding 0.5% (vol/vol). At concentrations below 0.5%, no effect of DMSO on the enzyme activity was observed. IC50s were deduced from a plot of percent loss of activity versus inhibitor concentration. […] The precision of these determinations was within the range of precision 10%.

E. coli BL21 (DE3) = test: MIC of meropenem against control strain; assay type: cell-based; conditions: Escherichia coli
Procedure: E. coli BL21 (DE3)/pET30a-NDM-1, which is similar to clinical NDM-1-carrying isolates and safer than clinical isolates, was used to evaluate the potential ability of NDM-1 inhibitors to reverse NDM-1-mediated carbapenem resistance in bacteria. E. coli BL21 (DE3) was used as a control in the experiment. E. coli BL21 (DE3)/pET30a-NDM-1 was grown overnight in MH broth media (Tianhe Microbial Agents, Hangzhou, China) containing kanamycin (30 µg/ml) at 37°C. Determination of antibacterial synergy was completed using a twofold serial dilution method, as recommended by CLSI guidelines. […] The 96-well microplates were incubated at 37°C with continuous shaking for 18 h and a reading at 630 nm was taken to determine minimum inhibitory concentrations (MICs), [22]. […] Each concentration reading was repeated three times. All of the above experiments were repeated at least twice.

[5] = system: CC1(C)S[C@@H]2[C@H](NC(=O)[C@H](N)c3ccccc3)C(=O)N2[C@H]1C(=O)O; test: purified protein, by the assay type; assay type: biochemical, E. coli; conditions: other: substrate hydrolysis, 20 mM HEPES pH 6.8, 30°C
Description: as §1, §2

[6] = system: CC(C)(O/N=C(\C(=O)N[C@@H]1C(=O)N2C(C(=O)[O-])=C(C[n+]3ccccc3)CS[C@H]12)c1csc(N)n1)C(=O)O; test: purified protein, by the assay type; assay type: biochemical, E. coli; conditions: other: substrate hydrolysis, 20 mM HEPES pH 6.8, 30°C
Description: as §1, §2

[7] = system: C[C@@H](O)[C@H]1C(=O)N2C(C(=O)O)=C(SCCN=CN)C[C@H]12; test: purified protein, by the assay type; assay type: biochemical, E. coli; conditions: other: substrate hydrolysis, 20 mM HEPES pH 6.8, 30°C
Description: as §1, §2

[8] = system: CC1(C)S[C@@H]2[C@H](NC(=O)Cc3ccccc3)C(=O)N2[C@H]1C(=O)O; test: purified protein, by the assay type; assay type: biochemical, E. coli; conditions: other: substrate hydrolysis, 20 mM HEPES pH 6.8, 30°C
Description: as §1, §2

[9] = system: CO/N=C(\C(=O)N[C@@H]1C(=O)N2C(C(=O)O)=C(COC(N)=O)CS[C@H]12)c1ccco1; test: purified protein, by the assay type; assay type: biochemical, E. coli; conditions: other: substrate hydrolysis, 20 mM HEPES pH 6.8, 30°C
Description: as §1, §2

[10] = system: Cc1cc(O)c(C(=O)N[C@@H](C(=O)N[C@@H]2C(=O)N3C(C(=O)O)=C(CSc4nnnn4C)CS[C@H]23)c2ccc(O)cc2)cn1; test: purified protein, by the assay type; conditions: other: substrate hydrolysis, 20 mM HEPES pH 6.8, 30°C
[11] = system: CO/N=C(\C(=O)N[C@@H]1C(=O)N2C(C(=O)O)=CCS[C@H]12)c1csc(N)n1; test: purified protein, by the assay type; conditions: other: substrate hydrolysis, 20 mM HEPES pH 6.8, 30°C
[12] = substrate hydrolysis, 20 mM HEPES pH 6.8, 30°C

## CC1(C)S[C@@H]2[C@H](NC(=O)[C@H](N)c3ccccc3)C(=O)N2[C@H]1C(=O)O [Ampicillin, ampicillin]
full-length NDM-1 [1]; [12]
  K m: 18 ± 1 µM
full-length NDM-1 [1]; substrate hydrolysis, 20 mM HEPES pH 6.8, 30°C, listed as ampicillin
  K m: 18 µM

## C[C@H]1[C@H](NC(=O)/C(=N\OC(C)(C)C(=O)O)c2csc(N)n2)C(=O)N1S(=O)(=O)O [Aztreonam, aztreonam]
full-length NDM-1 [1]; result in words
  hydrolysis by NDM-1 / kinetic constants: kinetic constants could not be calculated

## CC1(C)S[C@@H]2[C@H](NC(=O)Cc3ccccc3)C(=O)N2[C@H]1C(=O)O [Benzylpenicillin]
full-length NDM-1 [1]; [12]
  K m: 13 ± 1 µM
full-length NDM-1 [1]; substrate hydrolysis, 20 mM HEPES pH 6.8, 30°C, listed as benzylpenicillin
  K m: 13 µM

## Cc1cc(O)c(C(=O)N[C@@H](C(=O)N[C@@H]2C(=O)N3C(C(=O)O)=C(CSc4nnnn4C)CS[C@H]23)c2ccc(O)cc2)cn1 [Cefpiramide, cefpiramide]
full-length NDM-1 [1]; [12]
  K m: 39 ± 3 µM

## CC(C)(O/N=C(\C(=O)N[C@@H]1C(=O)N2C(C(=O)[O-])=C(C[n+]3ccccc3)CS[C@H]12)c1csc(N)n1)C(=O)O [Ceftazidime, ceftazidime]
full-length NDM-1 [1]; [12]
  K m: 129 ± 9 µM
full-length NDM-1 [1]; substrate hydrolysis, 20 mM HEPES pH 6.8, 30°C, listed as ceftazidime
  K m: 129 µM

## CO/N=C(\C(=O)N[C@@H]1C(=O)N2C(C(=O)O)=CCS[C@H]12)c1csc(N)n1 [Ceftizoxime, ceftizoxime]
full-length NDM-1 [1]; [12]
  K m: 29 ± 2 µM

## CO/N=C(\C(=O)N[C@@H]1C(=O)N2C(C(=O)O)=C(COC(N)=O)CS[C@H]12)c1ccco1 [Cefuroxime, cefuroxime]
full-length NDM-1 [1]; [12]
  K m: 12 µM and 12 ± 1 µM

## COC(=O)c1cc(OCc2ccccc2)c(C(=O)OC)s1 [Compound 1]
[2]
  solubility: precipitated out at high concentrations
[3]; inhibitor at 6.25 µM
  MICs of meropenem in combination with NDM-1 inhibitors: 256 µg/mL
[3]; inhibitor at 12.5 µM
  MICs of meropenem in combination with NDM-1 inhibitors: 256 µg/mL
[3]; inhibitor at 25.0 µM
  MICs of meropenem in combination with NDM-1 inhibitors: 256 µg/mL
[3]; inhibitor at 50.0 µM
  MICs of meropenem in combination with NDM-1 inhibitors: 256 µg/mL
[3]
  synergistic antibacterial activity with meropenem: did not exhibited synergistic antibacterial effect
full-length NDM-1 [4]
  IC50: > 300 µM

## COC(=O)c1sc(C(=O)OC)c(OCc2ccccc2)c1OCc1ccccc1 [Compound 2]
[2]
  solubility: precipitated out at high concentrations
[3]; inhibitor at 6.25 µM
  MICs of meropenem in combination with NDM-1 inhibitors: 256 µg/mL
[3]; inhibitor at 12.5 µM
  MICs of meropenem in combination with NDM-1 inhibitors: 256 µg/mL
[3]; inhibitor at 25.0 µM
  MICs of meropenem in combination with NDM-1 inhibitors: 256 µg/mL
[3]; inhibitor at 50.0 µM
  MICs of meropenem in combination with NDM-1 inhibitors: 256 µg/mL
[3]
  synergistic antibacterial activity with meropenem: did not exhibited synergistic antibacterial effect
full-length NDM-1 [4]
  IC50: > 100 µM

## COC(=O)c1sc(C(=O)OC)c(OCc2nnn[nH]2)c1OCc1nnn[nH]1 [Compound 3]
[2]
  solubility: better solubility
[3]; inhibitor at 6.25 µM
  MICs of meropenem in combination with NDM-1 inhibitors: 256 µg/mL
[3]; inhibitor at 12.5 µM
  MICs of meropenem in combination with NDM-1 inhibitors: 256 µg/mL
[3]; inhibitor at 25.0 µM
  MICs of meropenem in combination with NDM-1 inhibitors: 128 µg/mL
[3]; inhibitor at 50.0 µM
  MICs of meropenem in combination with NDM-1 inhibitors: 32 µg/mL
[3]; inhibitor at 100.0 µM
  MICs of meropenem in combination with NDM-1 inhibitors: 32 µg/mL
[3]
  synergistic antibacterial activity with meropenem: showed synergistic antibacterial activity
full-length NDM-1 [4]
  IC50: 980 µM

## O=C(O)C(C(=O)O)c1cc(Cc2nnn[nH]2)sc1Cc1nnn[nH]1 [Compound 4]
[2]
  solubility: stronger solubility
[3]; inhibitor at 6.25 µM
  MICs of meropenem in combination with NDM-1 inhibitors: 128 µg/mL
[3]; inhibitor at 12.5 µM
  MICs of meropenem in combination with NDM-1 inhibitors: 64 µg/mL
[3]; inhibitor at 25.0 µM
  MICs of meropenem in combination with NDM-1 inhibitors: 64 µg/mL
[3]; inhibitor at 50.0 µM
  MICs of meropenem in combination with NDM-1 inhibitors: 32 µg/mL
[3]; inhibitor at 100.0 µM
  MICs of meropenem in combination with NDM-1 inhibitors: 16 µg/mL
[3]
  sensitization of the strain to clinically achievable concentrations of meropenem: able to sensitize the strain to clinically achievable concentrations of meropenem
  synergistic antibacterial activity with meropenem: showed synergistic antibacterial activity
full-length NDM-1 [4]
  IC50: 280 µM

## O=C(O)C(C(=O)O)c1ccsc1 [Compound 5, 3-thiophenemalonic acid]
[3]; inhibitor at 6.25 µM
  MICs of meropenem in combination with NDM-1 inhibitors: 256 µg/mL
[3]; inhibitor at 12.5 µM
  MICs of meropenem in combination with NDM-1 inhibitors: 128 µg/mL
[3]; inhibitor at 25.0 µM
  MICs of meropenem in combination with NDM-1 inhibitors: 64 µg/mL
[3]; inhibitor at 50.0 µM
  MICs of meropenem in combination with NDM-1 inhibitors: 32 µg/mL
[3]; inhibitor at 100.0 µM
  MICs of meropenem in combination with NDM-1 inhibitors: 16 µg/mL
[3]
  sensitization of the strain to clinically achievable concentrations of meropenem: able to sensitize the strain to clinically achievable concentrations of meropenem
  synergistic antibacterial activity with meropenem: showed synergistic antibacterial activity
full-length NDM-1 [4]
  IC50: 610 µM

## C[C@@H](O)[C@H]1C(=O)N2C(C(=O)O)=C(SCCN=CN)C[C@H]12 [Imipenem, imipenem]
full-length NDM-1 [1]; [12]
  K m: 127 ± 11 µM
full-length NDM-1 [1]; substrate hydrolysis, 20 mM HEPES pH 6.8, 30°C, listed as imipenem
  K m: 127 µM

## C[C@@H](O)[C@H]1C(=O)N2C(C(=O)O)=C(S[C@@H]3CN[C@H](C(=O)N(C)C)C3)[C@H](C)[C@H]12 [Meropenem, meropenem]
E. coli BL21 (DE3)
  MIC: 2 µg/mL
[3]; Escherichia coli
  MIC: 256 µg/mL
full-length NDM-1 [1]; [12]
  K m: 68 ± 6 µM
  V max: 2.0 ± 0.15 µM/s
  k cat: 4.0 s⁻¹
full-length NDM-1 [1]; substrate hydrolysis, 20 mM HEPES pH 6.8, 30°C, listed as meropenem
  K m: 68 µM

## full-length NDM-1 (Klebsiella pneumoniae)
[5]
  kcat: 10 s⁻¹ and 11.4 s⁻¹
  kcat/Km: 630000 M⁻¹ s⁻¹
[6]
  kcat: 3.6 s⁻¹
  kcat/Km: 30000 M⁻¹ s⁻¹
[7]
  kcat: 10 s⁻¹ and 10.8 s⁻¹
  kcat/Km: 90000 M⁻¹ s⁻¹
[8]
  kcat: 10 s⁻¹ and 16.7 s⁻¹
  kcat/Km: 1.28e+06 M⁻¹ s⁻¹
[9]
  kcat: 2.6 s⁻¹
  kcat/Km: 220000 M⁻¹ s⁻¹
[10]
  kcat: 1.4 s⁻¹
  kcat/Km: 40000 M⁻¹ s⁻¹
[11]
  kcat: 3 s⁻¹
  kcat/Km: 100000 M⁻¹ s⁻¹
